Data taken from patent US20180312539A1, “METHODS FOR PREPARING HIGH THROUGHPUT PEPTIDOMIMETICS, ORALLY BIOAVAILABLE DRUGS AND COMPOSITIONS CONTAINING SAME” (University of Southern California, priority 2011, published 2018).

Columns and labels:
[1] = design: species or system C57BL6 mice; settings: mouse, in vivo, po, 10 mg/kg
Method: The following peptides were synthesized for oral administration: […](FAM) (SEQ ID NO: 14), […](FAM)DK(Palmitoleic acid) (SEQ ID NO: 15), and […](FAM) (SEQ ID NO: 16), wherein FAM is a lysine derivative containing fluorescein. All peptides were cyclized from the side chain to lysine to the N-terminus as previously described. Anesthetized C57BL6 mice had peptide administered at a dose of 10 mg/kg by oral gavage. After administration, mice were removed from isoflurane. At various time points, blood samples were taken by orbital bleeding as previously described. Peaks were normalized to a 15 minute time point from mice that had peptide administered by IV injection.
The following peptides were synthesized for oral administration: […](FAM) (SEQ ID NO: 14), […](FAM) (SEQ ID NO: 16), […](FAM)DK(biotin) (SEQ ID NO: 38), and […](FAM)DK(Palmitoleic acid) (SEQ ID NO: 15). All peptides were cyclized from the side chain to lysine to the N-terminus as previously described in Millward, S. W. et al. (2007) ACS Chem. Biol. 2:625. Anesthetized C57BL6 mice had peptide administered at a dose of 10 mgs/Kg by oral gavage. After administration, mice were removed from isoflurane. At various time points, blood samples were taken by orbital bleeding as previously described. Peaks were normalized to a 20 minute time point from mice that had peptide administered by IV injection. Area under the curve was analyzed by Graphpad 5.0.
In addition to accessing intracellular targets in cell culture, deriving a simple modification that would facilitate oral bioavailability of peptidic ligands would be greatly beneficial for therapeutic development. Intestinal absorption of both fatty acids and biotin is nearly 100% efficient. Zempleni, J. and Mock, D. M. (1999) The American Journal of Clinical Nutrition 69:504. […] Applicants synthesized a protease resistant peptide with the sequence […]-mod (designated SUPR peptide) (SEQ ID NO: 50), where A is N-methyl alanine, the peptide is cyclized from lysine to the N-terminus, and K(mod) is lysine with a modified sidechain including either biotin or palmitoleic acid. Palmitoleic acid is a monounsaturated fatty acid chosen for its ability to bind human serum albumin, and its low melting point allowing for more favorable solubility of conjugated peptides as compared to […] fatty acid conjugates. This peptide was administered to mice at a dose of 10 mg/kg by oral gavage. At various time points, blood was taken from the mice by orbital bleeding. After processing, fluorescence was quantified and compared to the maximum signal obtained by IV injection of peptide at the same dose.

[2] = biological target: T1, chymotrypsin (Bos taurus, UniProt P00766); experiment: Basic kinetic study with chymotrypsin (Km, Vmax); type: biochemical; settings: relative to cycGIBP
T1 construct: purchased Sigma
Source text: Crystal structures of serine proteases such as chymotrypsin and proteinase K show a hydrogen bonding network from the protease to the backbone of their substrate at four amino acid positions. Applicants postulated that N-methylation would result in a steric clash between the substrate and protease, thereby inhibiting the ability of the protease to bind to the peptide. In enzyme kinetic terms, this would result in an enhancement of Km. Additionally, several experiments have shown that proteases such as chymotrypsin, will not cut all of their predicted digest sites equally. It has long been observed that secondary structure will have an effect on proteolysis of a protein. However, there are now several independent examples of peptides with, with no predicted secondary structure that have predicted protease digest sites that are not proteolyzed. Applicants suspect that there may be some local sequence context that is inhibitor for proteolysis. This sequence context may either make it harder for the protease to bind its substrate (Km), or it may make it more difficult for the protease to perform catalysis on the substrate (Vmax). To investigate the origin of these enhancements, Applicants conducted a basic kinetic study with chymotrypsin. Proteinase K digested GIBP too quickly for this type of analysis but could be utilized in other systems and with other peptides.

[3] = biological target: T2, Gαi1 (Homo sapiens, UniProt P63096); experiment: TNT pulldown specificity analysis with radiolabeled Gα subunits; type: binding; settings: C-terminally biotinylated peptide on NeutrAvidin-agarose
T2 construct: made in house; host or cells: TNT (coupled in vitro transcription/translation), radiolabeled
T2 sequence (P63096 whole entry): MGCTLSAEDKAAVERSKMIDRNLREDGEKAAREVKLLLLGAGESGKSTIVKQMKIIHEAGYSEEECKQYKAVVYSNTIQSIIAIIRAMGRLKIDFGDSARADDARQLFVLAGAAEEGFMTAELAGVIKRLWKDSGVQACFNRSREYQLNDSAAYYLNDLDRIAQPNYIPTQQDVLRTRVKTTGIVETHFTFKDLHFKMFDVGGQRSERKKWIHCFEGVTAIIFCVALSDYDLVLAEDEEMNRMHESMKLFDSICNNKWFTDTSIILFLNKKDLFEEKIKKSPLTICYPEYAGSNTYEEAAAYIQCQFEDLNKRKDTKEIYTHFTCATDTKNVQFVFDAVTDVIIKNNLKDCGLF
Method: TNT pulldown experiments were carried out as previously described in Stoop and Craik (2003) Nat. Biotech 21:1063. […] Control NeutrAvidin-agarose was treated with DMSO alone. Binding reactions proceeded for 1 h at 4° C. followed by filtration and washing with 1× selection buffer. The matrix was analyzed by scintillation counting, and the percent bound was determined by the matrix counts divided by the total counts as determined by TCA precipitation. […] The peptide was immobilized on NeutrAvidin-agarose and used to pull down radiolabeled protein. […] This was true both for specificity within the Gα family as well as state specificity of Gαi1. In fact, there was a small enhancement of specificity for the target Gαi1 over a protein with nearly 85% sequence similarity, Gαi2. […] The ability to retain or enhance selectivity for a desired target is of tremendous importance for therapeutic and diagnostic development.

Compound: CSCC[C@@H]1NC(=O)CCCC(=O)NCCCC[C@@H](C(N)=O)NC(=O)[C@H](CO)NC(=O)[C@H](Cc2c[nH]c3ccccc23)NC(=O)[C@H](CCC(N)=O)NC(=O)[C@H](C)N(C)C(=O)[C@H](Cc2ccc(O)cc2)NC(=O)[C@H](CCC(=O)O)NC(=O)[C@H](Cc2ccc(O)cc2)NC(=O)[C@H](C)N(C)C(=O)[C@H](Cc2ccc(O)cc2)NC(=O)[C@H](Cc2ccccc2)NC1=O [cycSUPR]
- oral uptake efficiency [1]: did not show any detectable oral uptake
- Km and Vmax of chymotrypsin digestion [2]: optimized for protease resistance relative to cycGIBP
- specificity within the Gα family and state specificity of Gαi1 [3]: retained specificity of its parent molecule
